“And” between values parts separate entries of the source, which are not always exact repeats. Equal values may be shown once. Read-outs that look alike come from different tables or passages of the source.
Experiments:
[1] = system: Colorado potato beetle; test: Tomato leaf disk mortality assay, Y. entomophaga cells with chemical insecticides; conditions: for mortality at 1 µg/mL: Leptinotarsa decemlineata, in Solanum lycopersicum, foliar
[2] = system: Colorado potato beetle; conditions: thiacloprid 1 mg/L
Description: (§2) To produce cell free filtrates, cultures of Yersinia entomophaga grown in LB medium were centrifuged at 11,448 (g) for 10 minutes. The supernatant was decanted from the centrifuged pellet and filtered through a 0.22 μm filter. Assays were performed to determine concentrations of Yen-TC (toxin complex) using ELISA, and chitinase by measuring chitinase activity on specific substrates. […] This was done to estimate relative potency of the cell free filtrates. Insects were first pre-screened with a range of dilutions of cell free filtrates to select a concentration that provided moderate activity. […] Based on these initial screens, undiluted cell free filtrate was used for cabbage looper, fall armyworm, black cutworm, and Colorado potato beetle. […] In each of the Examples below, this is expressed as 1%.
Tomato leaf disks were dipped in either acetone (controls and Y. entomophaga alone treatments) or thiacloprid (Sigma 37905) at 1 mg/L in acetone. These were set to dry for 1 hr. […] After the tomato disks had dried for 1 hr, a single 3rd instar Colorado potato beetle was added to each individual cabbage disk. A total of 20 insects were evaluate for each treatment. Insects were observed daily and scored as live or dead.

[3] = system: diamondback moth; test: whole plant or invertebrate; conditions: thiacloprid 100 mg/L; for mortality at 100 µg/mL: Plutella xylostella, foliar, Abbott's corrected
Description: (§1) These were set to dry for 1 hr.
as §1
These were set to dry for 1 hr. Cabbage disks were then dipped in either 1% Luria broth (LB) media solution (controls and thiacloprid alone treatments) or in 1% cell free filtrate from a culture Y. entomophaga isolate O24G3R (Y. entomophaga alone or in combination with thiacloprid treatments).

[4] = system: cabbage looper
Description: as §2
Cabbage leaf disks were dipped in either acetone (controls and Y. entomophaga alone treatments) or novaluron (Sigma 32419) at 1.0 mg/L in acetone. These were set to dry for 1 hr. […] After the cabbage disks had dried for 1 hr, a single 3rd instar cabbage looper was added to each individual cabbage disk. A total of 20 insects were evaluate for each treatment. Insects were observed daily and scored as live or dead.

[5] = system: fall armyworm
Description: To produce cell free filtrates, cultures of Yersinia entomophaga grown in LB medium were centrifuged at 11,448 (g) for 10 minutes. The supernatant was decanted from the centrifuged pellet and filtered through a 0.22 μm filter. Assays were performed to determine concentrations of Yen-TC (toxin complex) using ELISA, and chitinase by measuring chitinase activity on specific substrates. […] This was done to estimate relative potency of the cell free filtrates. Insects were first pre-screened with a range of dilutions of cell free filtrates to select a concentration that provided moderate activity. […] Based on these initial screens, undiluted cell free filtrate was used for cabbage looper, fall armyworm, black cutworm, and Colorado potato beetle.
Cabbage leaf disks were dipped in either acetone (controls and Y. entomophaga alone treatments) or fipronil (Sigma 46451) at 12 mg/L in acetone. These were set to dry for 1 hr. […] After the cabbage disks had dried for 1 hr, a single 3rd instar fall armyworm was added to each individual cabbage disk. A total of 20 insects were evaluated for each treatment. Insects were observed daily and scored as live or dead.
Cabbage leaf disks were dipped in either acetone (controls and Y. entomophaga alone treatments) or esfenvalerate (Sigma 46277) at 56 mg/L in acetone. These were set to dry for 1 hr. […] After the cabbage disks had dried for 1 hr, a single 3rd instar fall armyworm was added to each individual cabbage disk. A total of 20 insects were evaluate for each treatment. Insects were observed daily and scored as live or dead.

[6] = system: Yersinia entomophaga; test: CFU counts after exposure of Yersinia entomophaga to insecticides; assay type: cell-based; conditions: 1 hour contact
Description: To test combinations of Yersinia entomophaga and pesticides for their ability to produce a pesticidal effect, or an effect on plant growth or yield, we first put various insecticides in contact with Yersinia to identify insecticides that had minimal toxicity to Yersinia entomophaga. The logic was that, if Yersinia entomophaga is to function well in combination with a chemical insecticide, the chemical insecticide would ideally have low or no effect on the ability of Yersinia entomophaga to survive, grow and/or to function.
To perform this study, we selected amounts of various insecticides based on the percent of the specific insecticide in the insecticide composition obtained from a manufacturer. We also considered the application rate of the particular insecticide, as recommended by the manufacturer. […] Generally, the 1× amount was considered possibly the lowest amount of insecticide that may be considered as an effective amount for use in the combinations disclosed herein. For each insecticide, we also used a higher amount of insecticide (generally a 5× or 10× amount).
The 1× and 5×/10× amounts of each insecticide were added to tubes along with 1 ml of ethyl acetate. The tubes were mixed until the insecticides dissolved. The tubes were left open in a fume hood overnight to allow the ethyl acetate to evaporate. The insecticide remained in the tubes, as a solid coat on the interior surface of the tubes.
A growing culture of Yersinia entomophaga, grown in LB medium, was diluted and 1 ml of the diluted culture was added to each tube containing the dried insecticide. The tubes were mixed and then left on the bench top for 1 hour. Then, 100 μl from each tube was plated onto LB plates in triplicate in CFU assays. Plates were incubated at 25° C. for 48 hours and colonies were counted.

[7] = system: black cutworm; test: Leaf disk mortality assay, Y. entomophaga cells with chemical insecticides; conditions: for % Mort. Chem. / LT50 Chem.: black cutworm
[8] = system: cabbage looper; remark: listed apart in the source
[9] = system: black cutworm
Description: as §2
Cabbage leaf disks were dipped in either acetone (controls and Y. entomophaga alone treatments) or in indoxacarb (Sigma 33969) at 0.53 mg/L in acetone. These were set to dry for 1 hr. […] After the cabbage disks had dried for 1 hr, a single 2nd instar black cutworm was added to each individual cabbage disk. A total of 20 insects were evaluate for each treatment. Insects were observed daily and scored as live or dead.
Cabbage leaf disks were dipped in either acetone (controls and Y. entomophaga alone treatments) or in flubendiamide (Sigma 32801) at 0.59 mg/L in acetone. These were set to dry for 1 hr. […] After the cabbage disks had dried for 1 hr, a single 2nd instar black cutworm was added to each individual cabbage disk. A total of 20 insects were evaluate for each treatment. Insects were observed daily and scored as live or dead.

[10] = system: fall armyworm; test: Leaf disk mortality assay, Y. entomophaga cells with chemical insecticides; conditions: for % Mortality (3DAT) / LT50 (95% confidence intervals) in days: 4th instar; for % Mort. Chem.: fall armyworm, Esfenvalerate 56 mg/L
[11] = 3rd instar, esfenvalerate 5.6 mg/L, isolate O23ZMJ 1×10^5 cfu/mL
[12] = 3rd instar, esfenvalerate 5.6 mg/L, isolate O24G3R 1×10^5 cfu/mL
[13] = 3rd instar, esfenvalerate 5.6 mg/L, isolate O43NEW 1×10^5 cfu/mL
[14] = 3rd instar, esfenvalerate 5.6 mg/L, isolate O348UX 1×10^5 cfu/mL
[15] = 3rd instar, esfenvalerate 5.6 mg/L, isolate O24G3R 1×10^4 cfu/mL
[16] = 3rd instar, esfenvalerate 56 mg/L, isolate O43NEW 1×10^6 cfu/mL
[17] = esfenvalerate 56 mg/L, isolate O23ZMJ 1×10^5 cfu/mL
[18] = esfenvalerate 56 mg/L, isolate O24G3R 1×10^5 cfu/mL
[19] = esfenvalerate 56 mg/L, isolate O348UX 1×10^5 cfu/mL

N#C/N=C1\SCCN1Cc1ccc(Cl)nc1 [Thiacloprid]
LT50 (95% confidence intervals) in days ([1]; 2nd instar larva, thiacloprid 1 mg/L, isolate O43NEW 1×10^6 cfu/mL): 6.99 (6.44-7.58) days | % Mort. Chem. ([1]; Colorado potato beetle, Thiacloprid 1 mg/L, 5 DAT): 26% | LT50 Chem. ([1]; Colorado potato beetle, Thiacloprid alone 1 mg/L): 6.99 days | mortality at 1 µg/mL ([1]; 96 h, read-out: % Mortality (4DAT)): 26% | mortality at 1 µg/mL ([1]; 120 h, read-out: % Mortality (5DAT)): 26% | LT50 (95% confidence intervals) ([2]; 3rd instar Colorado potato beetle, O43NEW undiluted filtrate, alone or combined): 12.71 days | LT50 Chem. ([2]; Colorado potato beetle): 12.71 days | % Mort. Chem. ([2]; Colorado potato beetle, 6 DAT): 13% | LT50 (95% confidence intervals) ([3]; 2nd instar diamondback moth, O24G3R filtrate 1%, alone or combined): 12.58 days | LT50 Chem. ([3]; Diamondback moth): 12.58 days | % Mort. Chem. ([3]; Diamondback moth, 7 DAT): 17% | mortality at 100 µg/mL ([3]; 96 h, read-out: % Mortality (4DAT), 2nd instar diamondback moth, O24G3R filtrate 1%, alone or combined, 4 DAT): 5% | mortality at 100 µg/mL ([3]; 120 h, read-out: % Mortality (5DAT), 2nd instar diamondback moth, O24G3R filtrate 1%, alone or combined, 5 DAT): 10% | mortality at 100 µg/mL ([3]; 144 h, read-out: % Mortality (6DAT), 2nd instar diamondback moth, O24G3R filtrate 1%, alone or combined, 6 DAT): 10% | mortality at 100 µg/mL ([3]; 168 h, read-out: % Mortality (7DAT), 2nd instar diamondback moth, O24G3R filtrate 1%, alone or combined, 7 DAT): 17% | mortality at 100 µg/mL ([3]; 288 h, read-out: % Mortality (12DAT), 2nd instar diamondback moth, O24G3R filtrate 1%, alone or combined, 12 DAT): 27% | mortality at 100 µg/mL ([3]; 312 h, read-out: % Mortality (13DAT), 2nd instar diamondback moth, O24G3R filtrate 1%, alone or combined, 13 DAT): 33%

CC(C)[C@H](C(=O)O[C@H](C#N)c1cccc(Oc2ccccc2)c1)c1ccc(Cl)cc1 [Esfenvalerate]
LT50 Chem. ([4]; Cabbage Looper, esfenvalerate 0.56 mg/L): 5.23 days | % Mort. Chem. ([4]; Cabbage Looper, esfenvalerate 0.56 mg/L, 5 DAT): 40% | % Mortality (5DAT) ([4]; in vivo): 40% | % Mortality (6DAT) ([4]; in vivo): 70% | % Mortality (8DAT) ([4]; in vivo): 83% | LT50 (95% confidence intervals) in days ([4]; in vivo): 5.23 (4.69-5.79) days | LT50 Chem. ([5]; Fall armyworm, esfenvalerate 56 mg/L): 9.84 days | % Mort. Chem. ([5]; fall armyworm, Esfenvalerate 56 mg/L, 5 DAT): 40% | % Mortality (5DAT) ([5]; in vivo): 40% | % Mortality (7DAT) ([5]; in vivo): 45% | LT50 (95% confidence intervals) ([5]; in vivo): 9.84 days | Average CFU ([6]; 0.8 mg insecticide): 258 CFU | Average CFU ([6]; 5.3 mg insecticide): 0 CFU | % Mortality (3DAT) [7, 11]: 42% | % Mortality (4DAT) [7, 11]: 61% | LT50 (95% confidence intervals) in days [7, 11]: 3.40 (3.03-3.81) days | % Mortality (5DAT) [7, 12]: 50% | % Mortality (6DAT) [7, 12]: 56% | % Mortality (7DAT) [7, 12]: 69% | LT50 (95% confidence intervals) in days [7, 12]: 5.29 (4.75-5.87) days | % Mortality (3DAT) [7, 13]: 40% | % Mortality (4DAT) [7, 13]: 45% | LT50 (95% confidence intervals) in days [7, 13]: 3.97 (3.60-4.38) days | % Mortality (5DAT) [7, 14]: 50% | % Mortality (6DAT) [7, 14]: 56% | % Mortality (7DAT) [7, 14]: 69% | LT50 (95% confidence intervals) [7, 14]: 5.29 days | % Mort. Chem. ([7]; Esfenvalerate 1.87 mg/L, 5 DAT (row with O24G3R)): 50% | % Mort. Chem. ([7]; Esfenvalerate 1.87 mg/L, 5 DAT (row with O348UX)): 50% | % Mort. Chem. ([7]; Esfenvalerate 5.6 mg/L, 4 DAT (row with O23ZMJ)): 61% | % Mort. Chem. ([7]; Esfenvalerate 5.6 mg/L, 4 DAT (row with O43NEW)): 45% | LT50 Chem. ([7]; Esfenvalerate alone 1.87 mg/L): 5.29 days | LT50 Chem. ([7]; Esfenvalerate alone 5.6 mg/L): 3.97 days and 3.40 days | % Mort. Chem. ([8]; cabbage looper, Esfenvalerate 0.56 mg/L, 7 DAT): 37% | LT50 Chem. ([8]; cabbage looper, Esfenvalerate alone 0.56 mg/L): 5.63 days | % Mortality (2DAT) ([8]; in vivo): 5% | LT50 (95% confidence intervals) in days ([8]; in vivo): 5.63 (5.19-6.11) days | LT50 Chem. ([9]; Black cutworm, esfenvalerate 5.6 mg/L): 3.68 days | % Mort. Chem. ([9]; Black cutworm, esfenvalerate 5.6 mg/L, 6 DAT): 84% | % Mortality (6DAT) ([9]; in vivo): 84% | LT50 (95% confidence intervals) ([9]; in vivo): 3.68 days | % Mortality (6DAT) [10, 15]: 0% | LT50 (95% confidence intervals) [10, 15]: 20.00 days | % Mortality (5DAT) [10, 16]: 5% | % Mortality (7DAT) [10, 16]: 5% | % Mortality (9DAT) [10, 16]: 11% | % Mortality (11DAT) [10, 16]: 6% | LT50 (95% confidence intervals) [10, 16]: 13.6 days | % Mortality (3DAT) [10, 17]: 25% | LT50 (95% confidence intervals) in days [10, 17]: 3.66 (3.28-4.09) days | % Mortality (3DAT) [10, 18]: 25% | LT50 (95% confidence intervals) in days [10, 18]: 3.66 (3.28-4.09) days | % Mortality (3DAT) [10, 19]: 25% | LT50 (95% confidence intervals) in days [10, 19]: 3.66 (3.28-4.09) days | % Mort. Chem. ([10]; 3 DAT (row with O23ZMJ)): 25% | % Mort. Chem. ([10]; 3 DAT (row with O24G3R 1 × 10^5)): 25% | % Mort. Chem. ([10]; 3 DAT (row with O348UX)): 25% | % Mort. Chem. ([10]; 5 DAT): 5% | % Mort. Chem. ([10]; 6 DAT): 0%

— patent publication US11716994B2, “Combinations of Yersinia entomophaga and pesticides or other substances” (priority 2017, dated 2023)
